Assay results as given in publication PMC7288428, “Amaryllidaceae alkaloids with anti-Trypanosoma cruzi activity” (Parasites & Vectors, 2020).
Values after ≈ are worked out from the molar mass of the structure shown. Values joined by “and” are separate entries in the source; they are usually repeats but may differ in a detail not shown here. Equal values may be shown once. Where a name gives a salt, the structure may show the parent alone. Read-outs that look alike come from different tables or passages of the source.

How the values were obtained:
protozoa = test system: protozoa; design: method as in ref 28, 29 = [28]; PMID 15541744; doi:10.1016/j.phytochem.2004.10.004; 28. Machocho AK Bastida J Codina C Viladomat F Brun R Chabra SC Augustamine type alkaloids from Crinum kirkii Phytochemistry. 2004 65 3143 3149 15541744 10.1016/j.phytochem.2004.10.004 || [29]; 29. Osorio EJ Berkov S Brun R Codina C Viladomat F Cabezas F In vitro antiprotozoal activity of alkaloids from Phaedranassa dubia (Amaryllidaceae) Phytochem Lett. 2010 3 161 163; details: cited from earlier work
[1] = test system: trypomastigotes from the T. cruzi strain Tulahuen C4; design: method as in ref 28 = [28]; PMID 15541744; doi:10.1016/j.phytochem.2004.10.004; 28. Machocho AK Bastida J Codina C Viladomat F Brun R Chabra SC Augustamine type alkaloids from Crinum kirkii Phytochemistry. 2004 65 3143 3149 15541744 10.1016/j.phytochem.2004.10.004; details: cited from earlier work
HepG2 cells [2] = experiment: HepG2 cell toxicity assay (Alamar Blue); details: 2 days, mean (SD in text)
Vero cells = experiment: Vero cell toxicity assay (Alamar Blue); details: 4 days, mean (SD in text)
[3] = test system: T. cruzi intracellular amastigote forms; experiment: Anti-amastigote specific activity assay (Vero host cells); type: cell-based; details: Trypanosoma cruzi, 96 h, read-out: anti-amastigote activity (IC50)
HepG2 cells [4] = test system: HepG2 cells; design: method as in PMID 7701000; details: cited from earlier work
T. cruzi [5] = test system: T. cruzi; design: method as in earlier work; details: cited from earlier work
[6] = test system: avian influenza virus H5N1; details: read-out: IC50 against avian influenza virus H5N1; cited from earlier work
T. cruzi [7] = test system: T. cruzi; design: method as in PMID 9810280, PMID 11301878, PMID 22673940; details: L6 cells as host; cited from earlier work
ZIKA virus [8] = test system: ZIKA virus; design: method as in PMID 28736217; details: cited from earlier work
ZIKA virus [9] = test system: ZIKA virus; design: method as in PMID 28736217; details: cited from earlier work; remark: listed apart in the source
ZIKA virus [10] = test system: ZIKA virus; design: method as in PMID 28736217; details: human forebrain organoids; cited from earlier work

CC(=O)O[C@@H]1CC=C2CCN3Cc4cc5c(cc4[C@H]1[C@@H]23)OCO5 [1-O-acetylcaranine]
antiprotozoal activity described before (protozoa): poor antiprotozoal agents

CC(=O)O[C@H]1C=C[C@@]23CCN(C)Cc4ccc(O)c(c42)O[C@H]3C1 [3-O-acetylsanguinine]
IC50 against trypomastigotes [1]: 2.3 µg/mL (≈ 7.29 µM) | IC50 ([1]; converted from μg/ml, read-out: IC50 against trypomastigotes): 7.29 µM

O=C(Cn1ccnc1[N+](=O)[O-])NCc1ccccc1 [BNZ, benznidazole, reference compound]
TC50, HepG2 cell toxicity assay (HepG2 cells [2]): 168.76 µM | TC50, Vero cell toxicity assay (Vero cells): 173.4 (43.57) µM and 173.4 µM | IC50 ([3]; intracellular amastigotes in Vero cells, mean (SD)): 1.2 µM

COC1C=CC23c4cc5c(cc4CN(CC2O)C3C1)OCO5 (centres unmarked) [Haemanthamine, haemanthamine]
TC50 for HepG2 cells (HepG2 cells [4]): 13 µg/mL | TC50 for HepG2 cells (HepG2 cells [4]; converted from µg/ml): 43.14 µM | TC50, HepG2 cell toxicity assay (HepG2 cells [2]): 42.48 (6.96) µM and 42.48 µM | TC50, Vero cell toxicity assay (Vero cells): 11.52 µM | IC50 against T. cruzi (T. cruzi [5]): 1.8 µg/mL (≈ 5.97 µM) | IC50 (T. cruzi [5]; converted from µg/ml, read-out: IC50 against T. cruzi): 5.97 µM

CN1CCC2=C[C@H](O)[C@H]3OC(=O)c4cc5c(cc4[C@H]3[C@@H]21)OCO5 [Hippeastrine, hippeastrine]
TC50 for HepG2 cells (HepG2 cells [4]): 40 µg/mL | TC50 for HepG2 cells (HepG2 cells [4]; converted from µg/ml): 126.85 µM | TC50, HepG2 cell toxicity assay (HepG2 cells [2]): 128.10 µM | TC50, HepG2 cell toxicity assay (HepG2 cells [2]; listed as hippeastrine): 128.1 (12.26) µM | TC50, Vero cell toxicity assay (Vero cells): 45.99 µM | TC50, Vero cell toxicity assay (Vero cells; listed as hippeastrine): 45.99 (6.32) µM | IC50 ([3]; Vero): 3.31 µM | IC50 [6]: 47.5 µM

O[C@H]1[C@H]2c3cc4c(cc3CN3CCC(=C[C@@H]1O)[C@H]23)OCO4 [Lycorine, lycorine]
TC50, HepG2 cell toxicity assay (HepG2 cells [2]): 21.87 µM | TC50, HepG2 cell toxicity assay (HepG2 cells [2]; listed as lycorine): 21.87 (4.16) µM | TC50, Vero cell toxicity assay (Vero cells): 5.21 µM | TC50, Vero cell toxicity assay (Vero cells; listed as lycorine): 5.21 (0.80) µM | activity against T. cruzi in previous studies (T. cruzi [7]): inactive

CO[C@H]1C=C2[C@H]3C[N@@](Cc4cc5c(cc43)OCO5)[C@H]2C[C@@H]1O [Montanine, montanine]
TC50, HepG2 cell toxicity assay (HepG2 cells [2]): 46.10 µM | TC50, HepG2 cell toxicity assay (HepG2 cells [2]; listed as montanine): 46.1 (11.99) µM | TC50, Vero cell toxicity assay (Vero cells): 5.04 µM

O=C1N[C@@H]2C(=C[C@H](O)[C@@H](O)[C@H]2O)c2cc3c(c(O)c21)OCO3 [Narciclasine, narciclasine]
TC50, HepG2 cell toxicity assay (HepG2 cells [2]): 2.73 µM | TC50, HepG2 cell toxicity assay (HepG2 cells [2]; listed as narciclasine): 2.73 (0.67) µM | TC50, Vero cell toxicity assay (Vero cells): 0.66 µM | TC50, Vero cell toxicity assay (Vero cells; listed as narciclasine): 0.66 (0.082) µM

CN1CC[C@@]23C=C[C@H](O)C[C@@H]2Oc2c(O)ccc(c23)C1 [Sanguinine, sanguinine]
antiprotozoal activity described before (protozoa): poor antiprotozoal agents

CO[C@@H]1C=C[C@@]23c4cc5c(cc4CO[C@]2(O)CN(C)[C@H]3C1)OCO5 [Tazettine, tazettine]
antiprotozoal activity described before (protozoa): poor antiprotozoal agents

C[C@H]1O[C@@H](O[C@H]2[C@@H](O)C[C@H](O[C@H]3[C@@H](O)C[C@H](O[C@H]4CC[C@@]5(C)[C@H](CC[C@@H]6[C@@H]5CC[C@]5(C)[C@@H](C7=CC(=O)OC7)CC[C@]65O)C4)O[C@@H]3C)O[C@@H]2C)C[C@H](O)[C@@H]1O [digitoxin, reference compound]
TC50, HepG2 cell toxicity assay (HepG2 cells [2]): 0.29 (0.14) µM

CN1CCC2=C[C@H](O)[C@H]3OC(=O)c4cc5c(cc4[C@H]3[C@@H]21)OCO5 [hippeastrine hydrobromide]
effect on virus propagation in infected adult mice (ZIKA virus [8]): suppress virus propagation in infected adult mice | effect on ZIKA virus in infected human neural progenitors (ZIKA virus [9]): remove ZIKA virus from infected human neural progenitors | effect on ZIKV-induced microcephaly phenotype (ZIKA virus [10]): recover a ZIKV-induced microcephaly phenotype in human forebrain organoids
